Assay results taken from ChEMBL document CHEMBL1201862, “PubChem BioAssay data set” (2004).
Active and inactive are the calls of the source.

Legend:
[1] = target: G-protein coupled receptor 55 (Homo sapiens, UniProt Q9Y2T6); test: inhibition of LPI-stimulated GPR55 beta-arrestin translocation – imaging, U2OS, beta-arrestin-GFP, LPI agonist, primary screen (AID 2013); assay type: functional;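 also: antagonist potency measured as reduced agonist-driven arrestin aggregation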
[2] = target: T1, Heat shock factor protein 1 (Mus musculus, UniProt P38532); test: enhancement of HSF1-driven luciferase signal – cell-based, NIH3T3, luminescence, dose retest, confirmation (AID 435004); assay type: functional;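 also: stress induced by proteasome inhibitor MG132 added 30 min after compound; luciferase reporter driven by HSF1 response element in NIH3T3 cells; actives raise luminescence as potentiators of the MG132 stress response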
T1 sequence (P38532 whole entry): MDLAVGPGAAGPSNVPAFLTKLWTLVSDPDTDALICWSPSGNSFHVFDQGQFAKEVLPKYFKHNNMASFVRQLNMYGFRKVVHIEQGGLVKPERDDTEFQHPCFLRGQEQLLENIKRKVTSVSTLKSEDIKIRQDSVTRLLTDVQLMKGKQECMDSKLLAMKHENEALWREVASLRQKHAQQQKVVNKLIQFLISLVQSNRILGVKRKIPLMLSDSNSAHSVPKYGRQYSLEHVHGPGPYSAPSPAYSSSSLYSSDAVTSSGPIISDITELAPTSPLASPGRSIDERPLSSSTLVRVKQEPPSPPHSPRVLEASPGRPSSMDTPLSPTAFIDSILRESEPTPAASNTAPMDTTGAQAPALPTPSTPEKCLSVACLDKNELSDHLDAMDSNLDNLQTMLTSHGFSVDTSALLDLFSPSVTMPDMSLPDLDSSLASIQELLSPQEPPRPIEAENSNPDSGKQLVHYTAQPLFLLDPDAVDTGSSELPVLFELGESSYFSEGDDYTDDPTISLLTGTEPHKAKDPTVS

[3] = target: Heat shock protein HSP 90-alpha (Homo sapiens, UniProt P07900); assay type: functional, organism-based
[4] = Trypanosoma cruzi growth suppression in host cells – NIH3T3 host cells, beta-gal luminescence, confirmation (AID 2044); assay type: functional, cell-based;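 also: intracellular parasites grown in NIH/3T3 mouse fibroblasts as host cells; luminescent beta-galactosidase reporter signal from transgenic T. cruzi replicating inside host cells; inhibitors lower the luminescence signal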
[5] = NIH3T3 cell viability loss – ATP luminescence, mouse fibroblasts, counter-screen, dose response (AID 2010); assay type: functional, cell-based;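 also: cells exposed to compound for about 90 hours before reading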
[6] = THP-1 cell cytotoxicity, dose response, cytotoxicity control for non-replicating M. tuberculosis project (AID 489025); assay type: functional
[7] = HepG2 cell cytotoxicity, dose response, cytotoxicity control for non-replicating M. tuberculosis project (AID 489018); assay type: functional; conditions: Mycobacterium tuberculosis
[8] = Vero E6 cell cytotoxicity, dose response, cytotoxicity control for non-replicating M. tuberculosis project, secondary assay (AID 492998); assay type: functional, VeroE6; conditions: Vero C1008
cells = assay type: functional
[9] = target: T2, High affinity choline transporter 1 (Homo sapiens, UniProt Q9GZV3); test: human choline transporter blockers, potency – cell-based, 5-point CRC, membrane potential dye, dose response (AID 504840); assay type: functional
T2 sequence (Q9GZV3 whole entry): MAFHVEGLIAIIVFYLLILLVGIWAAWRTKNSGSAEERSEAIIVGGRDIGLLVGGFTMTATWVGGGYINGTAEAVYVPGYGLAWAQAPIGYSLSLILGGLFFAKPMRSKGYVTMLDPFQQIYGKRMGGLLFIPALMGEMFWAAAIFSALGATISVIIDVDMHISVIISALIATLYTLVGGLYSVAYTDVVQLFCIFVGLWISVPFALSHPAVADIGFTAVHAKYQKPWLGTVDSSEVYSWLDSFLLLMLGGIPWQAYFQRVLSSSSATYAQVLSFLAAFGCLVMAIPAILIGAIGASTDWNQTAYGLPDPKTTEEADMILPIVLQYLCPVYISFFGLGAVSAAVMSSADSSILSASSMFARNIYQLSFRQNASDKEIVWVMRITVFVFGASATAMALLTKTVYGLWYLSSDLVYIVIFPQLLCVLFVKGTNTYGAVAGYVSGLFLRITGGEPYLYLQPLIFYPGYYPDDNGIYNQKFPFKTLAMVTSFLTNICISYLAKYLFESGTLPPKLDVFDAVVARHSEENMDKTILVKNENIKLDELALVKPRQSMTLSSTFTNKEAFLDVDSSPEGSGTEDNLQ

[10] = target: T3, Nucleotide-binding oligomerization domain-containing protein 1 (Homo sapiens, UniProt Q9Y239); test: SAR analysis of compounds that inhibit NOD1 - Set 3. [Related pubchem assays (depositor defined):AID1566, AID1575, AID1578, AID1849, AID1852, AID2333, AID2335, AID2466]; assay type: functional
T3 sequence (Q9Y239 whole entry): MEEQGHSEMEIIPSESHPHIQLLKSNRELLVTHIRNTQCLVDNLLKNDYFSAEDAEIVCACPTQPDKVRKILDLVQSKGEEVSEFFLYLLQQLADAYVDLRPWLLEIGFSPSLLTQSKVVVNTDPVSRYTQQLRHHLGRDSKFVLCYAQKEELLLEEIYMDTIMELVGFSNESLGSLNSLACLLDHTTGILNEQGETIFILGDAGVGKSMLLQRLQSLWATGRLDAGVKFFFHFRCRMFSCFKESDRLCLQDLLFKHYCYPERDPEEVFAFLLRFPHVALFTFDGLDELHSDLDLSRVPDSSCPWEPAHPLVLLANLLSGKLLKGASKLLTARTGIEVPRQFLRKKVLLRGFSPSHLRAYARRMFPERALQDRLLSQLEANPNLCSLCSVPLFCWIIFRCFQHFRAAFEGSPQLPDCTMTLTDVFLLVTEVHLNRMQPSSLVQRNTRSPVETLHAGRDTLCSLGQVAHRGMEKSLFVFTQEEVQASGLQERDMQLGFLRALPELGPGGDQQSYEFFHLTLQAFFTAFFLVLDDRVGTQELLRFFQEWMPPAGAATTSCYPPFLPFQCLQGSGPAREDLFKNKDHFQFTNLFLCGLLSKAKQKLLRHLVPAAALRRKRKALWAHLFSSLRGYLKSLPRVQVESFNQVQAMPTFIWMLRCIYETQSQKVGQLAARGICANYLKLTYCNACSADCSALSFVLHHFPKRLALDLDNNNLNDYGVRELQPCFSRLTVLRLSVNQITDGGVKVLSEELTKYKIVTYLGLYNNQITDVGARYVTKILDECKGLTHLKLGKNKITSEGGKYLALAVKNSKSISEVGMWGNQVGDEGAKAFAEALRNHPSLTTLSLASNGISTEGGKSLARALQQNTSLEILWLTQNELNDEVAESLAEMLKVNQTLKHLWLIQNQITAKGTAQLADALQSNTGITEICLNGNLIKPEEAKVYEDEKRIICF

Tumor necrosis factor = Tumor necrosis factor (Homo sapiens, UniProt P01375); test: analog potency on TNFa NF-kB signaling – cell-based, set 3, SAR follow-up (AID 2801); assay type: functional
Tumor necrosis factor, sequence (P01375 whole entry): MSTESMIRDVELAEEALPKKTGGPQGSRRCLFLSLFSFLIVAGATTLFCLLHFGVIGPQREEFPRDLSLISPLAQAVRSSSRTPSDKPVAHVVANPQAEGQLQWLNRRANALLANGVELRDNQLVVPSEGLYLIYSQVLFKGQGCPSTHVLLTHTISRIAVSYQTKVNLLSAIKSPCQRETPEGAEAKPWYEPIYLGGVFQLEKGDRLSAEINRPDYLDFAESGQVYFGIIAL

HEK293 = test: SAR analysis of compounds that are cytotoxic to HEK293 - Set 3. [Related pubchem assays (depositor defined):AID1575, AID1578, AID1848, AID1849, AID2001, AID2333, AID2334, AID2335, AID2337, AID2469]; assay type: functional, cell-based; conditions: Homo sapiens
[11] = target: Nucleotide-binding oligomerization domain-containing protein 2 (Homo sapiens, UniProt Q9HC29); test: inhibition of MDP-driven NOD2 NF-kB reporter – cell-based, set 3, SAR follow-up (AID 2799); assay type: functional
Nucleotide-binding oligomerization domain-containing protein 2, sequence (Q9HC29 whole entry, the tested form may be a part): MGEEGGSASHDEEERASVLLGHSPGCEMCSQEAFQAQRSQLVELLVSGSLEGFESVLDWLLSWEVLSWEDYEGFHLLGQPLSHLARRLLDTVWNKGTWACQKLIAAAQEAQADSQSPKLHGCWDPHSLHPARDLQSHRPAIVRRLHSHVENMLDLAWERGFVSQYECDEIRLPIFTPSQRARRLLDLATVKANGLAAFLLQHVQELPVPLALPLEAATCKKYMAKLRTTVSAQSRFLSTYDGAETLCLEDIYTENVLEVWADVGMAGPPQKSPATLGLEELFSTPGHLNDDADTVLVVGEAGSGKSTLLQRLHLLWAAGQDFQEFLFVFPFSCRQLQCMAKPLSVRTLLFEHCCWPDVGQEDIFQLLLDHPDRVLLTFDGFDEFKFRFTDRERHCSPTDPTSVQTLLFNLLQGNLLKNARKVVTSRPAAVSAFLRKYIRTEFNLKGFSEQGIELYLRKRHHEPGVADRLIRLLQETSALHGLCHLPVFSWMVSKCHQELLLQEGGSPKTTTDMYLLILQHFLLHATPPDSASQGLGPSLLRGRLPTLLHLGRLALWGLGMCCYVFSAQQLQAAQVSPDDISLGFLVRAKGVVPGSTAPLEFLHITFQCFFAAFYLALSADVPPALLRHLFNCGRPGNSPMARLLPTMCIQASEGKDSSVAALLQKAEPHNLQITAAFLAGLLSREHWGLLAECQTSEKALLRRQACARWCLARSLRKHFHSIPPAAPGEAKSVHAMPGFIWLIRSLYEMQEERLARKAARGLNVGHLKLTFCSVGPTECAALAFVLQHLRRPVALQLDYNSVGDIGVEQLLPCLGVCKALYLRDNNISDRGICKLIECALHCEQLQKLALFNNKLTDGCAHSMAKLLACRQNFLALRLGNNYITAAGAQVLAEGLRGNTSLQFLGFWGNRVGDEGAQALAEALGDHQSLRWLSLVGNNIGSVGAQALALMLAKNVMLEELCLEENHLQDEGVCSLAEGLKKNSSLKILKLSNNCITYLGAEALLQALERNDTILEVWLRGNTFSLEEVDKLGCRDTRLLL

Coagulation factor XII = target: T4, Coagulation factor XII (Homo sapiens, UniProt P00748); assay type: functional;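 also: activated factor XIIa alpha cleaving a fluorogenic AMC peptide substrate; inhibitor potency from loss of enzyme activity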
T4 sequence (P00748 whole entry): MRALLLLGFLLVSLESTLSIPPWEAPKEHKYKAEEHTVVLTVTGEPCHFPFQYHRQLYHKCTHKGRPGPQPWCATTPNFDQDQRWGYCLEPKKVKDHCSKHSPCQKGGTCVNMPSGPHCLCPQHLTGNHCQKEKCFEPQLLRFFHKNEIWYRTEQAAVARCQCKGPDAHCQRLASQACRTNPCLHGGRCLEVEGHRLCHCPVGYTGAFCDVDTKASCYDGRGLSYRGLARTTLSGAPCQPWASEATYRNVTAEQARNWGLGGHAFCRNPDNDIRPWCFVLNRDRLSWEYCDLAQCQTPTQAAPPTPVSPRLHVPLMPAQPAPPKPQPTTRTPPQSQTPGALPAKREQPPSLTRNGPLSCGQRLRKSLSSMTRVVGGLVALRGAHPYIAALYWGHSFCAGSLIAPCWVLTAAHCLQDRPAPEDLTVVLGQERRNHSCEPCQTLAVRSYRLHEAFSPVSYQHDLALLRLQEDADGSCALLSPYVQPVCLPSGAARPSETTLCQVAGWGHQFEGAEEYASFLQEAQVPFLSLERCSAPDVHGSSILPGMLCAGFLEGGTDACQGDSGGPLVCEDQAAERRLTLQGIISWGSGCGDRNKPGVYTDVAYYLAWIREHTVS

[12] = target: Alkaline phosphatase, placental type (Homo sapiens, UniProt P05187); test: human placental alkaline phosphatase inhibition – biochemical, luminescence, confirmation (AID 1512); assay type: functional
Alkaline phosphatase, placental type, sequence (P05187 whole entry): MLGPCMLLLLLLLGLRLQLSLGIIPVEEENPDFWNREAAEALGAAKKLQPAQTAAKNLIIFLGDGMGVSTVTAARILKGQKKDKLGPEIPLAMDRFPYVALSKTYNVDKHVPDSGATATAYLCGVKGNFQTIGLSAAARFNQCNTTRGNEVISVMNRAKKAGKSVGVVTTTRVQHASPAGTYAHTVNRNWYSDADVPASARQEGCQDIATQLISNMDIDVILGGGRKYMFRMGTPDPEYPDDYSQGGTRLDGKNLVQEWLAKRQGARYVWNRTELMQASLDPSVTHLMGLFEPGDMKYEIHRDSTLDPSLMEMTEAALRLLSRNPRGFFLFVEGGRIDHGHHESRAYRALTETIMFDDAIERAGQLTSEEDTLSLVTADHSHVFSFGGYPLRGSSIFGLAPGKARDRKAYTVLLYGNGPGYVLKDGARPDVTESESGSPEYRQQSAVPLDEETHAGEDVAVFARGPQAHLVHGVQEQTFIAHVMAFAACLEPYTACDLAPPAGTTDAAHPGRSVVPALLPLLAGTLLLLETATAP

[13] = target: T5, Alkaline phosphatase, tissue-nonspecific isozyme (Homo sapiens, UniProt P05186); test: potency against alkaline phosphatase TNAP – biochemical, luminescent, dose response, SAR follow-up (AID 1056)
T5 sequence (P05186 whole entry): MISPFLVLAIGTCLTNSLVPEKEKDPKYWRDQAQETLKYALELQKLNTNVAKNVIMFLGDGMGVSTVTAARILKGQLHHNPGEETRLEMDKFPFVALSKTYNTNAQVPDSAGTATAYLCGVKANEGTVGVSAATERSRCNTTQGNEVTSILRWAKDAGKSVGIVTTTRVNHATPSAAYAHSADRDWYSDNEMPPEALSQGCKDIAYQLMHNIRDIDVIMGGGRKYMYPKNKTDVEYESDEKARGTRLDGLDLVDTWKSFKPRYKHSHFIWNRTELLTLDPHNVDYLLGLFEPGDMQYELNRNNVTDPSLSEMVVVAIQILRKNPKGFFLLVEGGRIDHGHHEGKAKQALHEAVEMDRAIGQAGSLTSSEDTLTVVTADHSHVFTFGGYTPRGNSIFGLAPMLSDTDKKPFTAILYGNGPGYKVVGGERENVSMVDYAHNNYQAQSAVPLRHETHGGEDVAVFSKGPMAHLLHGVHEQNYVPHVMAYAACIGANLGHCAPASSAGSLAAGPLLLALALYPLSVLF

G-protein coupled receptor 55, sequence (Q9Y2T6 whole entry): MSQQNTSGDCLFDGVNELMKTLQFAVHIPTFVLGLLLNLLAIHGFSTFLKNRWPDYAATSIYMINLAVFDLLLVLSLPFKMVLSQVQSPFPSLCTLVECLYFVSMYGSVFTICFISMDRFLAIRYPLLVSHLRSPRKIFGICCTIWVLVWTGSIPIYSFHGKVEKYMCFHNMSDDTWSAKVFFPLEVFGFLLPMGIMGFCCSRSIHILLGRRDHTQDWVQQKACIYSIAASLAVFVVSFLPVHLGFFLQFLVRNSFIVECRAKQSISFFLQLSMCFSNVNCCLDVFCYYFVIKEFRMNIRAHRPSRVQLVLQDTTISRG

Clc1ccccc1CN(Cc1ccco1)Cc1nnnn1C1CCCC1
IC50 [1]: 4.16 µM (active) | EC50 [2]: > 260 µM (inactive) | AC50 [3]: 5.48 µM (active)

CN(C)CCCn1c(=O)n(CCc2ccccc2)c(=O)c2c3c(sc21)CCCCC3
EC50 [4]: 0.113 µM (active) | EC50 [5]: 36.1 µM (active) | CC50 [6]: 19.1 µM (active) | CC50 [7]: 14.3 µM (active) | CC50 [8]: 12.5 µM (active) | IC50 (cells): 21.2 µM (active) | IC50 [9]: 12.6 µM (active)

COc1ccc(-c2cc(N)n(S(=O)(=O)c3ccc(F)c(C)c3)n2)cc1
IC50 [10]: > 20 µM (inactive) | IC50 (Tumor necrosis factor): 19.9 µM (active) | IC50 (HEK293): > 20 µM (inactive) | IC50 [11]: > 20 µM (inactive)

Nc1nc2ccccc2n1S(=O)(=O)c1ccc(F)cc1
IC50 [10]: 4.31 µM (active) | IC50 (Tumor necrosis factor): > 20 µM (inactive) | IC50 (HEK293): > 20 µM (inactive) | IC50 [11]: > 20 µM (inactive)

Cn1c(SCC(=O)c2ccccc2)nnc1-c1cccc(N)c1
IC50 (Coagulation factor XII): > 50 µM (inactive) | IC50 [12]: > 100 µM (inactive) | IC50 [13]: > 100 µM (inactive)
